According to patent US9890176B2, “Mannose derivatives for treating bacterial infections” (Vertex Pharmaceuticals Incorporated, priority 2013, dated 2018):

What follows are molecules tested against T1, carbohydrate recognition domain of the protein FimH (M1-T179) (Escherichia coli, UniProt P08191) (assay: Thermal Shift Assay). Details: 5.6 μM protein, 56 μM ligand; DMSO control as reference; ± standard error of the mean (number of repeats).
T1 construct: domain of the protein FimH (M1-T179) with an uncleavable C-terminus 6-His tag; made in house; host or cells: E. coli (pET21b plasmid)
T1 sequence (P08191 22-179 limits assumed): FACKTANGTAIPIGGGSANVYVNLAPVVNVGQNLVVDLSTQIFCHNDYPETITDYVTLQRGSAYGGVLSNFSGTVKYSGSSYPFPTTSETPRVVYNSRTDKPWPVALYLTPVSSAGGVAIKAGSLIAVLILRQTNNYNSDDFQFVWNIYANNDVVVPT
Type: binding, E. coli
Experimental: The carbohydrate recognition domain of the protein FimH (M1-T179) with an uncleavable C-terminus 6-His tag is cloned in a pET21b plasmid and expressed in E. coli and purified to homogeneity. The thermal stabilization of the protein upon ligand binding is measured in a 96-well format on a ViiA™ 7 (Life Technologies, Carlsbad, Calif.) RT-PCR instrument. The assay is conducted in duplicate in 20 mM Tris pH 7.4 and 150 mM NaCl at a final concentration of 5.6 μM and 56 μM for protein and ligand, respectively. An environmentally-sensitive dye (Applied Biosystems Protein Thermal Shift™ Dye (P/N 4461141)) is added to each well to a final ratio of 1:1000. Plates are spun at 1000×g for 1 minute and incubated at room temperature for 10 minutes. Thermal stability of protein with and without ligand is measured from 45° C. to 85° C. at a scan rate of 0.05° C./sec. The resulting data is analyzed using Protein Thermal Shift™ Software (version 1.1) with DMSO control used as reference.
With Cc1cc(=O)oc2cc(O[C@H]3O[C@H](CO)[C@@H](O)[C@H](O)[C@@H]3F)ccc12 [Example 10, 7-[(2R,3S,4S,5S,6R)-3-fluoro-4,5-dihydroxy-6-(hydroxymethyl)tetrahydropyran-2-yl]oxy-4-methyl-chromen-2-one] the “Delta Thermal melt” value was 3.405 ± 0.105 (2) ° C. With Cc1cc(-c2cccc([N+](=O)[O-])c2)ccc1O[C@H]1O[C@H](CO)[C@@H](O)[C@H](O)[C@@H]1F [Example 2, (2R,3S,4S,5S,6R)-5-fluoro-2-(hydroxymethyl)-6-((3-methyl-3′-nitro-[1,1′-biphenyl]-4-yl)oxy)tetrahydro-2H-pyran-3,4-diol] the “Delta Thermal melt” value was 6.01 (1) ° C. For CNC(=O)c1cccc(-c2ccc(O[C@H]3O[C@H](CO)[C@@H](O)[C@H](O)[C@@H]3F)cc2)c1 [Example 7, 3-[4-[(2R,3S,4S,5S,6R)-3-fluoro-4,5-dihydroxy-6-(hydroxymethyl)tetrahydropyran-2-yl]oxyphenyl]-N-methyl-benzamide], the “Delta Thermal melt” value was 3.86 ± 0.09 (2) ° C. For COc1cc(Br)ccc1O[C@H]1O[C@H](CO)[C@@H](O)[C@H](O)[C@@H]1F [Example 5, (2R,3S,4S,5S,6R)-6-(4-bromo-2-methoxy-phenoxy)-5-fluoro-2-(hydroxymethyl)tetrahydropyran-3,4-diol], the “Delta Thermal melt” value was 1.8 (1) ° C. With CNC(=O)c1cccc(-c2ccc(O[C@H]3O[C@H](CO)[C@@H](O)[C@H](O)[C@@H]3F)c(OC)c2)c1 [Example 8, 3-[4-[(2R,3S,4S,5S,6R)-3-fluoro-4,5-dihydroxy-6-(hydroxymethyl)tetrahydropyran-2-yl]oxy-3-methoxy-phenyl]-N-methyl-benzamide] the “Delta Thermal melt” value was 4 (1) ° C. Cc1cc(Br)ccc1O[C@H]1O[C@H](CO)[C@@H](O)[C@H](O)[C@@H]1F [Example 1, (2R,3S,4S,5S,6R)-6-(4-bromo-2-methyl-phenoxy)-5-fluoro-2-(hydroxymethyl)tetrahydropyran-3,4-diol] was tested, and the “Delta Thermal melt” value was 3 (1) ° C. COC(=O)c1cc(C(=O)OC)cc(-c2ccc(O[C@H]3O[C@H](CO)[C@@H](O)[C@H](O)[C@@H]3F)cc2)c1 [Example 9, Dimethyl 5-[4-[(2R,3S,4S,5S,6R)-3-fluoro-4,5-dihydroxy-6-(hydroxymethyl)tetrahydropyran-2-yl]oxyphenyl]benzene-1,3-dicarboxylate] was tested, and the “Delta Thermal melt” value was 4.39 ± 0.11 (2) ° C. In the case of OC[C@H]1O[C@H](Oc2ccc(Br)cc2C(F)(F)F)[C@@H](F)[C@@H](O)[C@@H]1O [Example 3, (2R,3S,4S,5S,6R)-6-[4-bromo-2-(trifluoromethyl)phenoxy]-5-fluoro-2-(hydroxymethyl)tetrahydropyran-3,4-diol], the “Delta Thermal melt” value is reported as 3.2 (1) ° C.

Each molecule was assayed on bacterial strain LF82 binding to the glycoprotein BSA-(Mannose)3 (assay: Bacterial Binding Assay (BBA)). Details: read-out: Bacterial Binding Assay IC50.
Type: cell-based, Escherichia coli
How it was run: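 Luciferase-tagged E. coli LF82 grown overnight at 37° C without shaking, then added at 2×10^8 bacteria/mL (10^7 per well) to wells coated with 0.5-2 μg/mL BSA-(Man)3 and blocked with 2% BSA. Compound in 0.2% BSA/D-PBS; binding 40-75 min at room temperature. Washed; bound bacteria read by luciferase luminescence; IC50.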
Work on Cc1cc(-c2cccc([N+](=O)[O-])c2)ccc1O[C@H]1O[C@H](CO)[C@@H](O)[C@H](O)[C@@H]1F [Example 2, (2R,3S,4S,5S,6R)-5-fluoro-2-(hydroxymethyl)-6-((3-methyl-3′-nitro-[1,1′-biphenyl]-4-yl)oxy)tetrahydro-2H-pyran-3,4-diol] yielded an IC50 of 1150 ± 350 nM. CNC(=O)c1cccc(-c2ccc(O[C@H]3O[C@H](CO)[C@@H](O)[C@H](O)[C@@H]3F)cc2)c1 [Example 7, 3-[4-[(2R,3S,4S,5S,6R)-3-fluoro-4,5-dihydroxy-6-(hydroxymethyl)tetrahydropyran-2-yl]oxyphenyl]-N-methyl-benzamide] gave an IC50 of 8620 ± 1300 nM. Work on C[C@@]1(O)[C@@H](Oc2ccc(N3CCc4cc([N+](=O)[O-])ccc43)cc2Cl)O[C@H](CO)[C@@H](O)[C@@H]1O [Example 19, (2R,3S,4S,5S,6R)-2-(2-chloro-4-(5-nitroindolin-1-yl)phenoxy)-6-(hydroxymethyl)-3-methyltetrahydro-2H-pyran-3,4,5-triol] yielded an IC50 of 13 ± 6 nM. Work on CNC(=O)c1cccc(-c2ccc(O[C@H]3O[C@H](CO)[C@@H](O)[C@H](O)[C@]3(C)O)cc2)c1 [Example 14, N-methyl-3-[4-[(2R,3S,4S,5S,6R)-3,4,5-trihydroxy-6-(hydroxymethyl)-3-methyl-tetrahydropyran-2-yl]oxyphenyl]benzamide] yielded an IC50 of 132 ± 44 nM. In the case of C[C@@]1(O)[C@@H](Oc2ccc3ccc(O[C@H]4O[C@H](CO)[C@@H](O)[C@H](O)[C@]4(C)O)cc3c2)O[C@H](CO)[C@@H](O)[C@@H]1O [Example 108, (2R,3S,4S,5S,6R)-6-(hydroxymethyl)-3-methyl-2-[[7-[(2R,3S,4S,5S,6R)-3,4,5-trihydroxy-6-(hydroxymethyl)-3-methyl-tetrahydropyran-2-yl]oxy-2-naphthyl]oxy]tetrahydropyran-3,4,5-triol], the IC50 is reported as 158 ± 61 nM. Molecule COc1c(F)cc(-c2ccc(O[C@H]3O[C@H](CO)[C@@H](O)[C@H](O)[C@]3(C)O)c(C)c2)cc1F [Compound 98] has an IC50 of 16 ± 7 nM. Cc1cc(C2CC2c2ccc(O[C@H]3O[C@H](CO)[C@@H](O)[C@H](O)[C@]3(C)O)c(C)c2)ccc1O[C@H]1O[C@H](CO)[C@@H](O)[C@H](O)[C@]1(C)O (stereo partly drawn) [Example 123, (2R,3S,4S,5S,6R)-6-(hydroxymethyl)-3-methyl-2-[2-methyl-4-[2-[3-methyl-4-[(2R,3S,4S,5S,6R)-3,4,5-trihydroxy-6-(hydroxymethyl)-3-methyl-tetrahydropyran-2-yl]oxy-phenyl]cyclopropyl]phenoxy]tetrahydropyran-3,4,5-triol] gave an IC50 of 1 ± 0.5 nM. Molecule Cc1cc(-c2cc(Cl)ccc2F)ccc1O[C@H]1O[C@H](CO)[C@@H](O)[C@H](O)[C@]1(C)O [Compound 77] has an IC50 of 150 nM. For Cc1cc(-c2cccc(C(=O)N[C@@H](CO)C(=O)O)c2)ccc1O[C@H]1O[C@H](CO)[C@@H](O)[C@H](O)[C@]1(C)O [Compound 69], the IC50 was 30 ± 12 nM. CNC(=O)c1cccc(-c2ccc(O[C@H]3O[C@H](CO)[C@@H](O)[C@H](O)[C@@H]3F)c(OC)c2)c1 [Example 8, 3-[4-[(2R,3S,4S,5S,6R)-3-fluoro-4,5-dihydroxy-6-(hydroxymethyl)tetrahydropyran-2-yl]oxy-3-methoxy-phenyl]-N-methyl-benzamide] was tested, and the IC50 was 5400 ± 200 nM. Work on Cc1cc(-c2cccc(Cl)c2F)ccc1O[C@H]1O[C@H](CO)[C@@H](O)[C@H](O)[C@]1(C)O [Compound 93] yielded an IC50 of 215 ± 5 nM. Cc1cc(-c2ccc(F)c(C(=O)N3CCOCC3)c2)ccc1O[C@H]1O[C@H](CO)[C@@H](O)[C@H](O)[C@]1(C)O [Compound 102] showed an IC50 of 24 ± 5 nM. Cc1cc(-c2ccc(O[C@H]3O[C@H](CO)[C@@H](O)[C@H](O)[C@]3(C)O)c(C)c2)ccc1O[C@H]1O[C@H](CO)[C@@H](O)[C@H](O)[C@]1(C)O [Compound 105, (2R,3S,4S,5S,6R)-6-(hydroxymethyl)-3-methyl-2-[2-methyl-4-[3-methyl-4-[(2R,3S,4S,5S,6R)-3,4,5-trihydroxy-6-(hydroxymethyl)-3-methyl-tetrahydropyran-2-yl]oxy-phenyl]phenoxy]tetrahydropyran-3,4,5-triol] was tested, and the IC50 was 6 ± 2 nM. Work on C[C@@]1(O)[C@@H](Oc2ccc(-c3ccc(C(=O)NC4CC4)c(Cl)c3)cc2Cl)O[C@H](CO)[C@@H](O)[C@@H]1O [Compound 54] yielded an IC50 of 42 ± 7 nM. C[C@@]1(O)[C@@H](Oc2ccc(-c3ccc(O[C@H]4O[C@H](CO)[C@@H](O)[C@H](O)[C@]4(C)O)c(Cl)c3)cc2Cl)O[C@H](CO)[C@@H](O)[C@@H]1O [Example 107, (2R,3S,4S,5S,6R)-2-[2-chloro-4-[3-chloro-4-[(2R,3S,4S,5S,6R)-3,4,5-trihydroxy-6-(hydroxymethyl)-3-methyl-tetrahydropyran-2-yl]oxy-phenyl]phenoxy]-6-(hydroxymethyl)-3-methyl-tetrahydropyran-3,4,5-triol] was tested, and the IC50 was 5 ± 1 nM. Cc1cc(-c2cccc(C(=O)NC[C@H]3OC(O)[C@H](O)[C@@H](O)[C@@H]3O)c2)ccc1O[C@H]1O[C@H](CO)[C@@H](O)[C@H](O)[C@]1(C)O (some centres unmarked) [Compound 64] was tested, and the IC50 was 20 ± 0.5 nM. Molecule Cc1cc(-c2cccc(C(=O)NC(CO)CO)c2)ccc1O[C@H]1O[C@H](CO)[C@@H](O)[C@H](O)[C@]1(C)O [Compound 62] has an IC50 of 9 ± 3 nM. With CNC(=O)c1cccc(-c2ccc(O[C@H]3O[C@H]([C@H](C)O)[C@@H](O)[C@H](O)[C@@H]3O)c(C)c2)c1 [compound 27] the IC50 was 165 ± 49 nM. Cc1cc(-c2cccc(C(=O)N[C@@H](CO)[C@H](C)O)c2)ccc1O[C@H]1O[C@H](CO)[C@@H](O)[C@H](O)[C@]1(C)O [Compound 59] showed an IC50 of 20 ± 4 nM. Molecule C[C@@]1(O)[C@@H](Oc2ccc(-c3ccc(O[C@H]4O[C@H](CO)[C@@H](O)[C@H](O)[C@]4(C)O)c(C#N)c3)cc2C#N)O[C@H](CO)[C@@H](O)[C@@H]1O [Example 111, 5-[3-cyano-4-[(2R,3S,4S,5S,6R)-3,4,5-trihydroxy-6-(hydroxymethyl)-3-methyl-tetrahydropyran-2-yl]oxy-phenyl]-2-[(2R,3S,4S,5S,6R)-3,4,5-trihydroxy-6-(hydroxymethyl)-3-methyl-tetrahydropyran-2-yl]oxy-benzonitrile] has an IC50 of 6 ± 2 nM. Cc1cc(-c2cc(F)cc(C(=O)N3CCOCC3)c2)ccc1O[C@H]1O[C@H](CO)[C@@H](O)[C@H](O)[C@]1(C)O [Compound 103] showed an IC50 of 18 ± 8 nM. Molecule CNC(=O)c1ccc(-c2cccc(O[C@H]3O[C@H](CO)[C@@H](O)[C@H](O)[C@]3(C)O)c2Cl)cc1 [Compound 47] has an IC50 of 55 ± 29 nM. CNC(=O)c1cccc(-c2ccc(O[C@H]3O[C@H](CO)[C@@H](O)[C@H](O)[C@@]3(O)CN=[N+]=[N-])c(C)c2)c1 [Compound 38] gave an IC50 of 105 ± 5 nM. Molecule Cc1cc(-c2cccc(C(=O)N[C@H]3[C@H](O)[C@@H](CO)OC(O)[C@@H]3O)c2)ccc1O[C@H]1O[C@H](CO)[C@@H](O)[C@H](O)[C@]1(C)O (some centres unmarked) [Compound 65] has an IC50 of 20 ± 8 nM. CNC(=O)c1cccc(-c2ccc(O[C@H]3O[C@H]([C@@H](O)C(C)C)[C@@H](O)[C@H](O)[C@@H]3O)c(C)c2)c1 [Compound 30] gave an IC50 of over 10000 nM. Cc1cc(-c2ccc(F)c(Cl)c2)ccc1O[C@H]1O[C@H](CO)[C@@H](O)[C@H](O)[C@]1(C)O [Compound 92] was tested, and the IC50 was 82 ± 15 nM. In the case of Cc1cc(-c2cccc(C(=O)O)c2)ccc1O[C@H]1O[C@H](CO)[C@@H](O)[C@H](O)[C@]1(C)O [Compound 21], the IC50 is reported as 112 ± 37 nM.
